Where a SMILES comes first, the peptide text is derived from it. Bridges are numbered along the chain shown (N, C = ends). [ ]: non-standard residue; d: D form. The star is where a group is joined. hPhe(3-Cl-4-CF3) = N[C@@H](CCc1ccc(C(F)(F)F)c(Cl)c1)C(=O)O; NPrPhe(4-CF3) = CCCN[C@@H](Cc1ccc(C(F)(F)F)cc1)C(=O)O; NMeGly(cPent) = CN[C@H](C(=O)O)C1CCCC1; Pro(4S-Me) = C[C@@H]1CN[C@H](C(=O)O)C1; Hyp = O=C(O)[C@@H]1C[C@@H](O)CN1; NMeD = CN[C@@H](CC(=O)O)C(=O)O; NMeL = CN[C@@H](CC(C)C)C(=O)O; Morpholide = C1CN(*)CCO1; Ac5c = NC1(C(=O)O)CCCC1; Aze = O=C(O)[C@@H]1CCN1; Sar = CNCC(=O)O
Assays:
[1] = target: GDP-bound HRAS wild-type protein (Homo sapiens, UniProt P01112); experiment: Binding to HRAS by surface plasmon resonance (SPR), Single Cycle Kinetics; details: for HRAS/KRAS (ratio of KD value with respect to HRAS to KD value with respect to KRAS): GDP-bound HRAS wild-type vs GDP-bound KRAS wild-type
Chain of GDP-bound HRAS wild-type protein (P01112 whole entry): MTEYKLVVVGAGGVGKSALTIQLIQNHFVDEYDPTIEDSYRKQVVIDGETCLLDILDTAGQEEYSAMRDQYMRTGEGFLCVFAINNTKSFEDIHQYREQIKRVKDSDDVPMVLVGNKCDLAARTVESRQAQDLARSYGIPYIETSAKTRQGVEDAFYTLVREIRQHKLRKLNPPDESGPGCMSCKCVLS

[2] = target: GDP-bound NRAS wild-type protein (Homo sapiens, UniProt P01111); experiment: Binding to NRAS by surface plasmon resonance (SPR), Single Cycle Kinetics; details: for NRAS/KRAS (ratio of KD value with respect to NRAS to KD value with respect to KRAS): GDP-bound NRAS wild-type vs GDP-bound KRAS wild-type
Chain of GDP-bound NRAS wild-type protein (P01111 whole entry): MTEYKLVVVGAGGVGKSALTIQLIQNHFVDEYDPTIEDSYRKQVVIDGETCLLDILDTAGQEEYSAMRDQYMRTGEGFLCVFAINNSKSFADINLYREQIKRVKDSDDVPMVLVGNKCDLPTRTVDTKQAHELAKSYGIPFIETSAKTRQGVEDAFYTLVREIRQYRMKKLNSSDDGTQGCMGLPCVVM

CCC[C@H]1C(=O)N[C@@H](CC(C)C)C(=O)N(CCOC)CC(=O)N(C)[C@H]2C/C=C\CCN(C2=O)[C@@H](Cc2ccc(C)cc2)C(=O)N(C)CC(=O)N[C@@H](CCc2cc(F)c(C(F)(F)F)c(F)c2)C(=O)N2C[C@H](OCC)C[C@H]2C(=O)NC2(CC(C)(C)C2)C(=O)N(C)[C@@H](C2CCCC2)C(=O)N(C)[C@H](C(=O)N(C)C)CC(=O)N1C [PP2520]
HRAS/KRAS (ratio of KD value with respect to HRAS to KD value with respect to KRAS) ([1]; SPR): A (a compound having 10 or more and less than 20 is denoted as A) | NRAS/KRAS (ratio of KD value with respect to NRAS to KD value with respect to KRAS) ([2]; SPR): A (a compound having 10 or more and less than 20 is denoted as A)

CCC[C@H]1C(=O)N[C@@H]([C@@H](C)CC)C(=O)N(C)CC(=O)N(C)[C@H]2C/C=C\CCN(C2=O)[C@@H](Cc2ccc(C)cc2)C(=O)N(C)CC(=O)N[C@@H](CCc2cc(F)c(C(F)(F)F)c(F)c2)C(=O)N2C[C@H](OCC)C[C@H]2C(=O)NC2(CC(C)(C)C2)C(=O)N(C)[C@@H](CC2CC2)C(=O)N(C)[C@H](C(=O)N(C)C)CC(=O)N1C [PP2797]
HRAS/KRAS (ratio of KD value with respect to GDP-bound HRAS wild-type protein to KD value with respect to KRAS) ([1]; KD ratio HRAS/KRAS, class symbols): A (a compound having 10 or more and less than 20 is denoted as A) | NRAS/KRAS (ratio of KD value with respect to GDP-bound NRAS wild-type protein to KD value with respect to KRAS) ([2]; KD ratio NRAS/KRAS, class symbols): A (a compound having 10 or more and less than 20 is denoted as A)

CC[C@H](C)[C@@H]1NC(=O)[C@H](CC(C)C)N(C)C(=O)C[C@@H](C(=O)N2CCOCC2)N(C)C(=O)[C@H](C2CCCC2)N(C)C(=O)C2(CCC2)NC(=O)[C@@H]2[C@@H](OC)CCN2C(=O)[C@H](CCc2cc(F)c(C(F)(F)F)c(F)c2)NC(=O)CN(C)C(=O)[C@H](Cc2ccc(C(F)(F)F)cc2)N2CCCCC[C@@H](C2=O)N(C)C(=O)CN(C)C1=O [PP1067]
HRAS/KRAS (ratio of KD value with respect to HRAS to KD value with respect to KRAS) ([1]; KD ratio, SPR): B (a compound having 3 or more and less than 10 is denoted as B) | NRAS/KRAS (ratio of KD value with respect to NRAS to KD value with respect to KRAS) ([2]; KD ratio, SPR): B (a compound having 3 or more and less than 10 is denoted as B)

CCCN1C(=O)CN(C)C(=O)[C@@H]2CCN2C(=O)[C@H]([C@@H](C)CC)NC(=O)[C@H](CC(C)C)N(C)C(=O)C[C@@H](C(=O)N2CCOCC2)NC(=O)[C@H](C2CCCC2)N(C)C(=O)C2(CCCC2)NC(=O)[C@@H]2C[C@@H](OCC)CN2C(=O)[C@H](CCc2ccc(C(F)(F)F)c(Cl)c2)NC(=O)CN(C)C(=O)[C@@H]1Cc1ccc(C(F)(F)F)cc1 [PP0341] ([NMeL]I[Aze][Sar][NPrPhe(4-CF3)][Sar][hPhe(3-Cl-4-CF3)][Hyp](Et)[Ac5c][NMeGly(cPent)]D-Morpholide; lactam N-11)
HRAS/KRAS (ratio of KD for GDP-bound HRAS wild-type to KD for KRAS) ([1]; KD ratio HRAS/KRAS, SPR): B (a compound having 3 or more and less than 10 is denoted as B) | NRAS/KRAS (ratio of KD for GDP-bound NRAS wild-type to KD for KRAS) ([2]; KD ratio NRAS/KRAS, SPR): B (a compound having 3 or more and less than 10 is denoted as B)

CC[C@H](C)[C@@H]1NC(=O)[C@H](CC(C)C)N(C)C(=O)C[C@@H](C(=O)N2CCOCC2)N(C)C(=O)[C@H](C2CCCC2)N(C)C(=O)C2(CCCC2)NC(=O)[C@@H]2CCCN2C(=O)[C@H](CCc2cc(F)c(C(F)(F)F)c(F)c2)NC(=O)CN(C)C(=O)[C@H](Cc2ccc(C(F)(F)F)cc2)N2CCCC[C@@H](C2=O)N(C)C(=O)[C@@H]2CCCCN2C1=O [PP0548]
HRAS/KRAS (ratio of KD value with respect to GDP-bound HRAS wild-type protein to KD value with respect to KRAS) ([1]; KD ratio HRAS/KRAS, SPR): B (a compound having 3 or more and less than 10 is denoted as B) | NRAS/KRAS (ratio of KD value with respect to GDP-bound NRAS wild-type protein to KD value with respect to KRAS) ([2]; KD ratio NRAS/KRAS, SPR): C (A compound having a KD ratio of 0.1 or more and less than 3 is denoted as C)

CCC[C@H]1C(=O)N[C@@H]([C@@H](C)CC)C(=O)N(C)CC(=O)N(C)[C@H]2C/C=C\CCN(C2=O)[C@@H](Cc2ccc(C(F)(F)F)cc2)C(=O)N(C)CC(=O)N[C@@H](CCc2ccc(C(F)(F)F)c(Cl)c2)C(=O)N2CC3(CC3)C[C@H]2C(=O)NC2(CC(C)(C)C2)C(=O)N(C)[C@@H](CC(F)(F)F)C(=O)N(C)[C@H](C(=O)N(C)C)CC(=O)N1C [PP2985]
HRAS/KRAS (ratio of KD value with respect to GDP-bound HRAS wild-type protein to KD value with respect to KRAS) ([1]; KD ratio HRAS/KRAS, SPR, GDP-bound wild-type proteins): A (a compound having 10 or more and less than 20 is denoted as A) | NRAS/KRAS (ratio of KD value with respect to GDP-bound NRAS wild-type protein to KD value with respect to KRAS) ([2]; KD ratio NRAS/KRAS, SPR, GDP-bound wild-type proteins): AA (a compound having 20 or more is denoted as AA)

CCCN1C(=O)CN(C)C(=O)[C@@H]2CCN2C(=O)[C@H]([C@@H](C)CC)NC(=O)[C@H](CC(C)C)N(C)C(=O)C[C@@H](C(=O)N2CCOCC2)N(C)C(=O)[C@H](C2CCCC2)N(C)C(=O)C2(CCCC2)NC(=O)[C@@H]2C[C@H](C)CN2C(=O)[C@H](CCc2ccc(C(F)(F)F)c(Cl)c2)NC(=O)CN(C)C(=O)[C@@H]1Cc1ccc(C(F)(F)F)cc1 [PP0453] ([NMeL]I[Aze][Sar][NPrPhe(4-CF3)][Sar][hPhe(3-Cl-4-CF3)][Pro(4S-Me)][Ac5c][NMeGly(cPent)][NMeD]-Morpholide; lactam N-11)
HRAS/KRAS (ratio of KD value with respect to GDP-bound HRAS wild-type protein to KD value with respect to KRAS) ([1]; KD ratio HRAS/KRAS, SPR): C (A compound having a KD ratio of 0.1 or more and less than 3 is denoted as C) | NRAS/KRAS (ratio of KD value with respect to GDP-bound NRAS wild-type protein to KD value with respect to KRAS) ([2]; KD ratio NRAS/KRAS, SPR): B (a compound having 3 or more and less than 10 is denoted as B)

Source: patent publication US20250230193A1, “CYCLIC COMPOUND HAVING SELECTIVE KRAS INHIBITORY EFFECT ON HRAS AND NRAS” (CHUGAI SEIYAKU KABUSHIKI KAISHA, priority 2022, published 2025)
